Solubility and EC50 data for seven compounds are collected here from patent US20230143604A1, “QW DOSING OF GIP RECEPTOR AGONIST PEPTIDE COMPOUNDS AND USES THEREOF” (TAKEDA PHARMACEUTICAL COMPANY LIMITED, priority 2020, published 2023).

Read-outs that look alike come from different tables or passages of the source.

One data set is described as follows: physchem. An outline of the steps: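 Solubility at pH 7.4 determined by stepwise addition of 200 mM phosphate buffer in 100 μL increments to 3 mg peptide, mixing briefly each time, until no insoluble material remained, then measured by liquid chromatography.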
A further data set addresses T1, human GLP-1R (Homo sapiens, UniProt P43220).
T1 construct: HEK-293T cells overexpressing full-length human GLP-1R; FLAG (N); host or cells: HEK-293T
Nature of the data set: Human GLP1R agonist activity, intracellular cAMP accumulation. The class given is cell-based. Particulars: HEK-293T cells overexpressing human GLP-1R, 1 hr. The protocol:
Cells are cultured per the manufacturer's protocol in DMEM with 10% fetal bovine serum and 1 μg/mL puromycin and stored in frozen aliquots to be used as assay ready cells. On the day of the assay, cells are removed from frozen storage, washed two times in 1× Kreb's Ringer Buffer (Zenbio, Research Triangle Park, N.C.), and re-suspended to a concentration of 4×10^5 cells/mL in 1× Kreb's Ringer Buffer. […] Cells are incubated with test compound for 1 hr at room temperature in the dark, and cAMP accumulation is measured using the Cisbio HiRange cAMP assay kit (Bedford, Mass.) per the manufacturer's protocol. Anti-cAMP antibody and d2-cAMP tracer reagents diluted in lysis/detection buffer are incubated in the dark for 1 hr, and results are measured on an Envision plate reader (Perkin Elmer, Waltham, Mass.). Data is normalized using 1 nm GLP-1 as 100% activity, and DMSO alone as 0% activity.
(Cyclic AMP is a second messenger, typically raised through Gs and lowered through Gi signalling.)

Setting [1] is: read-out: Human GLP1R cAMP EC50, HEK293T.

What is called solubility is how much of the substance goes into solution per volume. The EC50 is the concentration needed to bring the measured effect to its halfway point.

T1 sequence (P43220 24-463): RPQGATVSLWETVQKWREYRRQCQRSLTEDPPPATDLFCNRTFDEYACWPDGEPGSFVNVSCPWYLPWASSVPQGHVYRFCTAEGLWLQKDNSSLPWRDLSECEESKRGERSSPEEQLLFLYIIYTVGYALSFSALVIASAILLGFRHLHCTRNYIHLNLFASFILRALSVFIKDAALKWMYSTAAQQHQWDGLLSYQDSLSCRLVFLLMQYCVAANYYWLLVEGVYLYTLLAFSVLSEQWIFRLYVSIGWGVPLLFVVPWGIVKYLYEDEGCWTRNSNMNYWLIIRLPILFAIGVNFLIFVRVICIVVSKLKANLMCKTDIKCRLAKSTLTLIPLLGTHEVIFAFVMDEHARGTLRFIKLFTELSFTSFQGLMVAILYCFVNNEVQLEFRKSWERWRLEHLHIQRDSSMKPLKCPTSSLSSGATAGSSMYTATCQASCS

For `CC[C@H](C)[C@H](NC(=O)[C@H](Cc1ccccc1)NC(=O)[C@@H](NC(=O)CNC(=O)[C@H](CCC(=O)O)NC(=O)C(C)(C)NC(=O)[C@H](Cc1ccc(O)cc1)NC)[C@@H](C)O)C(=O)N[C@@H](CO)C(=O)N[C@@H](CC(=O)O)C(=O)N[C@@H](Cc1ccc(O)cc1)C(=O)N[C@@H](CO)C(=O)N[C@H](C(=O)NC(C)(C)C(=O)N[C@@H](CCCCNC(=O)CNC(=O)CNC(=O)CNC(=O)CNC(=O)CNC(=O)CCCCCCCCCCCCCCCC(=O)O)C(=O)N[C@@H](CC(=O)O)C(=O)N[C@@H](CCCNC(=N)N)C(=O)NC(C)(C)C(=O)N[C@@H](C)C(=O)N[C@@H](CCC(N)=O)C(=O)NC(C)(C)C(=O)N[C@@H](CC(=O)O)C(=O)N[C@@H](Cc1ccccc1)C(=O)N[C@H](C(=O)N[C@@H](CC(N)=O)C(=O)N[C@@H](Cc1c[nH]c2ccccc12)C(=O)N[C@@H](CC(C)C)C(=O)N[C@@H](CC(C)C)C(=O)N[C@@H](C)C(=O)N[C@@H](CCC(N)=O)C(=O)N[C@@H](CCCNC(=N)N)C(=O)NCC(=O)O)C(C)C)[C@@H](C)CC` [Compound 98], the solubility was at least 15 mg/mL in the data set “physchem” (pH 7.4) and at least 30 mg/mL in “physchem” (pH 7.4, aqueous buffer). Moreover, the EC50 at human GLP-1R (setting [1]) turned out to be 112 nM.

In the case of `CC[C@H](C)[C@H](NC(=O)[C@H](CO)NC(=O)[C@H](Cc1ccc(O)cc1)NC(=O)[C@H](CC(=O)O)NC(=O)[C@H](CO)NC(=O)[C@@H](NC(=O)[C@H](Cc1ccccc1)NC(=O)[C@@H](NC(=O)CNC(=O)[C@H](CCC(=O)O)NC(=O)C(C)(C)NC(=O)[C@H](Cc1ccc(O)cc1)NC)[C@@H](C)O)[C@@H](C)CC)C(=O)N[C@@H](C)C(=O)N[C@@H](CCCCNC(=O)CNC(=O)CNC(=O)CNC(=O)CNC(=O)CNC(=O)CCCCCCCCCCCCCCCCC(=O)O)C(=O)N[C@@H](CC(=O)O)C(=O)N[C@@H](CO)C(=O)NC(C)(C)C(=O)N[C@@H](C)C(=O)N[C@@H](CCC(N)=O)C(=O)NC(C)(C)C(=O)N[C@@H](CC(=O)O)C(=O)N[C@@H](Cc1ccccc1)C(=O)N[C@H](C(=O)N[C@@H](CC(N)=O)C(=O)N[C@@H](Cc1c[nH]c2ccccc12)C(=O)N[C@@H](CC(C)C)C(=O)N[C@@H](CC(C)C)C(=O)N[C@@H](C)C(=O)N[C@@H](CCC(N)=O)C(=O)N[C@@H](CCCCN)C(=O)NCC(=O)O)C(C)C` [Compound 75], the solubility in “physchem” (pH 7.4) was at least 15 mg/mL; in the data set “physchem” (pH 7.4, aqueous buffer), at least 30 mg/mL. The EC50 on human GLP-1R (setting [1]) was 550 nM.

In the case of `CC[C@H](C)[C@H](NC(=O)[C@H](CO)NC(=O)[C@H](Cc1ccc(O)cc1)NC(=O)[C@H](CC(=O)O)NC(=O)[C@H](CO)NC(=O)[C@@H](NC(=O)[C@H](Cc1ccccc1)NC(=O)[C@@H](NC(=O)CNC(=O)[C@H](CCC(=O)O)NC(=O)C(C)(C)NC(=O)[C@H](Cc1ccc(O)cc1)NC)[C@@H](C)O)[C@@H](C)CC)C(=O)N[C@@H](C)C(=O)N[C@@H](CC(C)C)C(=O)N[C@@H](CC(=O)O)C(=O)N[C@@H](CCCNC(=N)N)C(=O)N[C@@H](CCCCNC(=O)CNC(=O)CNC(=O)CNC(=O)CNC(=O)CNC(=O)CCCCCCCCCCCCCCCCC(=O)O)C(=O)N[C@@H](C)C(=O)N[C@@H](CCC(N)=O)C(=O)NC(C)(C)C(=O)N[C@@H](CC(=O)O)C(=O)N[C@@H](Cc1ccccc1)C(=O)N[C@H](C(=O)N[C@@H](CC(N)=O)C(=O)N[C@@H](Cc1c[nH]c2ccccc12)C(=O)N[C@@H](CC(C)C)C(=O)N[C@@H](CC(C)C)C(=O)N[C@@H](C)C(=O)N[C@@H](CCC(N)=O)C(=O)N[C@@H](CO)C(=O)N1CCC[C@H]1C(=O)NCC(=O)O)C(C)C` [Compound 113], the solubility in the data set “physchem” (pH 7.4) was at least 15 mg/mL; in “physchem” (pH 7.4, aqueous buffer), at least 30 mg/mL. For the same compound, the EC50 on human GLP-1R (setting [1]) was found to be 13.5 nM.

Take `CC[C@H](C)[C@H](NC(=O)[C@H](Cc1ccccc1)NC(=O)[C@@H](NC(=O)CNC(=O)[C@H](CCC(=O)O)NC(=O)C(C)(C)NC(=O)[C@@H](N)Cc1ccc(O)cc1)[C@@H](C)O)C(=O)N[C@@H](CO)C(=O)N[C@@H](CC(=O)O)C(=O)N[C@@H](Cc1ccc(O)cc1)C(=O)N[C@@H](CO)C(=O)N[C@H](C(=O)NC(C)(C)C(=O)N[C@@H](CCCCNC(=O)CNC(=O)CNC(=O)CNC(=O)CNC(=O)CNC(=O)CCCCCCCCCCCCCCCCC(=O)O)C(=O)N[C@@H](CC(=O)O)C(=O)N[C@@H](CO)C(=O)NC(C)(C)C(=O)N[C@@H](C)C(=O)N[C@@H](CCC(N)=O)C(=O)NC(C)(C)C(=O)N[C@@H](CC(=O)O)C(=O)N[C@@H](Cc1ccccc1)C(=O)N[C@H](C(=O)N[C@@H](CC(N)=O)C(=O)N[C@@H](Cc1c[nH]c2ccccc12)C(=O)N[C@@H](CC(C)C)C(=O)N[C@@H](CC(C)C)C(=O)N[C@@H](C)C(=O)N[C@@H](CCC(N)=O)C(=O)N[C@@H](CCCNC(=N)N)C(=O)NCC(=O)O)C(C)C)[C@@H](C)CC` [Compound 150]: the solubility was at least 15 mg/mL in the data set “physchem” (pH 7.4) and at least 30 mg/mL in “physchem” (pH 7.4, aqueous buffer). For the same compound, at human GLP-1R (setting [1]), the 50% effective concentration (EC50) worked out at 13.5 nM.

On to `CC[C@H](C)[C@H](NC(=O)[C@H](Cc1ccccc1)NC(=O)[C@@H](NC(=O)CNC(=O)[C@H](CCC(=O)O)NC(=O)C(C)(C)NC(=O)[C@H](Cc1ccc(O)cc1)NC)[C@@H](C)O)C(=O)N[C@@H](CO)C(=O)N[C@@H](CC(=O)O)C(=O)N[C@@H](Cc1ccc(O)cc1)C(=O)N[C@@H](CO)C(=O)N[C@H](C(=O)NC(C)(C)C(=O)N[C@@H](CCCCNC(=O)CNC(=O)CNC(=O)CNC(=O)CNC(=O)CNC(=O)CCCCCCCCCCCCCCCC(=O)O)C(=O)N[C@@H](CC(=O)O)C(=O)N[C@@H](CCCNC(=N)N)C(=O)NC(C)(C)C(=O)N[C@@H](C)C(=O)N[C@@H](CCC(N)=O)C(=O)NC(C)(C)C(=O)N[C@@H](CC(N)=O)C(=O)N[C@@H](Cc1ccccc1)C(=O)N[C@H](C(=O)N[C@@H](CC(N)=O)C(=O)N[C@@H](Cc1c[nH]c2ccccc12)C(=O)N[C@@H](CC(C)C)C(=O)N[C@@H](CC(C)C)C(=O)N[C@@H](C)C(=O)N[C@@H](CCC(N)=O)C(=O)N[C@@H](CO)C(=O)N1CCC[C@H]1C(=O)N[C@@H](CO)C(=O)N[C@@H](CO)C(=O)NCC(=O)N[C@@H](C)C(=O)N1CCC[C@H]1C(=O)N1CCC[C@H]1C(=O)N1CCC[C@H]1C(=O)N[C@@H](CO)C(=O)O)C(C)C)[C@@H](C)CC` [Compound 95], for which the solubility was at least 60 mg/mL in the data set “physchem” (pH 7.4, aqueous buffer, pH 7.4 Phosphate Buffer - Solubility, 200 mM Phosphate buffer pH 7.4) and at least 15 mg/mL in the data set “physchem” (pH 7.4, solubility in phosphate buffer at pH 7.4, 200 mM phosphate buffer pH 7.4). At human GLP-1R (Human GLP1R cAMP EC50, HEK293T (nM)), this compound returned an EC50 of 17.4 nM.

Turning to `CC[C@H](C)[C@H](NC(=O)[C@H](Cc1ccccc1)NC(=O)[C@@H](NC(=O)CNC(=O)[C@H](CCC(=O)O)NC(=O)C(C)(C)NC(=O)[C@H](Cc1ccc(O)cc1)NC)[C@@H](C)O)C(=O)N[C@@H](CO)C(=O)N[C@@H](CC(=O)O)C(=O)N[C@@H](Cc1ccc(O)cc1)C(=O)N[C@@H](CO)C(=O)N[C@H](C(=O)NC(C)(C)C(=O)N[C@@H](CC(C)C)C(=O)N[C@@H](CC(=O)O)C(=O)N[C@@H](CO)C(=O)N[C@@H](CCCCNC(=O)CNC(=O)CNC(=O)CNC(=O)CNC(=O)CNC(=O)CCCCCCCCCCCCCCCCC(=O)O)C(=O)N[C@@H](C)C(=O)N[C@@H](CCC(N)=O)C(=O)NC(C)(C)C(=O)N[C@@H](CC(=O)O)C(=O)N[C@@H](Cc1ccccc1)C(=O)N[C@H](C(=O)N[C@@H](CC(N)=O)C(=O)N[C@@H](Cc1c[nH]c2ccccc12)C(=O)N[C@@H](CC(C)C)C(=O)N[C@@H](CC(C)C)C(=O)N[C@@H](C)C(=O)N[C@@H](CCC(N)=O)C(=O)N[C@@H](CCCCN)C(=O)NCC(=O)O)C(C)C)[C@@H](C)CC` [Compound 77], the solubility in “physchem” (pH 7.4) is at least 15 mg/mL; in “physchem” (pH 7.4, aqueous buffer), at least 30 mg/mL. At human GLP-1R (setting [1]), the EC50 was 17 nM.

On to `CC[C@H](C)[C@H](NC(=O)[C@H](CO)NC(=O)[C@H](Cc1ccc(O)cc1)NC(=O)[C@H](CC(=O)O)NC(=O)[C@H](CO)NC(=O)[C@@H](NC(=O)[C@H](Cc1ccccc1)NC(=O)[C@@H](NC(=O)CNC(=O)[C@H](CCC(=O)O)NC(=O)C(C)(C)NC(=O)[C@H](Cc1ccc(O)cc1)NC)[C@@H](C)O)[C@@H](C)CC)C(=O)N[C@@H](C)C(=O)N[C@@H](CCCCNC(=O)CNC(=O)CNC(=O)CNC(=O)CNC(=O)CNC(=O)CCCCCCCCCCCCCCCCC(=O)O)C(=O)N[C@@H](CC(=O)O)C(=O)N[C@@H](CO)C(=O)NC(C)(C)C(=O)N[C@@H](C)C(=O)N[C@@H](CCC(N)=O)C(=O)NC(C)(C)C(=O)N[C@@H](CC(=O)O)C(=O)N[C@@H](Cc1ccccc1)C(=O)N[C@H](C(=O)N[C@@H](CC(N)=O)C(=O)N[C@@H](Cc1c[nH]c2ccccc12)C(=O)N[C@@H](CC(C)C)C(=O)N[C@@H](CC(C)C)C(=O)N[C@@H](C)C(=O)N[C@@H](CCC(N)=O)C(=O)N[C@@H](CO)C(=O)NCC(=O)O)C(C)C` [Compound 60], for which the solubility in “physchem” (pH 7.4) is at least 15 mg/mL; in “physchem” (pH 7.4, aqueous buffer), at least 30 mg/mL. The half-maximal effective concentration (EC50) on human GLP-1R (setting [1]) amounted to 100 nM.
